From PubChem BioAssay (NCI) come the findings set out here.

Among the test systems are CCRF-CEM leukemia; KM12 colon; MOLT-4 leukemia; NCI-H23 lung; NCI-H522 lung; OVCAR-8 ovarian; SF-268 CNS; SK-OV-3 ovarian; SNB-19 CNS; SW-620 colon; T-47D breast; U251 CNS; SK-MEL-5 melanoma; A549 NSCLC.
Common to all, as to assay: NCI tumour cell line growth inhibition, 48 h

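A five-concentration, 48-hour dose response in 96-well plates underlies each endpoint, interpolated linearly between surrounding concentrations. TGI: total growth inhibition.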

Take `CC12CCC(C(=O)OC1=O)C2(C)C` (stereo not drawn): the TGI in the experiment with CCRF-CEM leukemia, with KM12 colon, in the experiment with MOLT-4 leukemia, with NCI-H23 lung, with NCI-H522 lung and with OVCAR-8 ovarian was over 100 µM throughout. Also, the TGI in the experiment with SF-268 CNS, with SK-OV-3 ovarian, with SNB-19 CNS, in the experiment on SW-620 colon, in the experiment with T-47D breast and with U251 CNS was over 100 µM in each case.
For `CCOC(=O)C1=C(Nc2cccc(OC)c2)OCC1=O`, the TGI in the experiment with CCRF-CEM leukemia, in the experiment on KM12 colon, in the experiment on MOLT-4 leukemia, in the experiment with NCI-H23 lung, with OVCAR-8 ovarian and in the experiment with SF-268 CNS was over 100 µM each time. Moreover, the TGI in the experiment with SK-MEL-5 melanoma, with SK-OV-3 ovarian, in the experiment with SNB-19 CNS, in the experiment with SW-620 colon, in the experiment on T-47D breast and in the experiment on U251 CNS was over 100 µM each time.
Take `CN(Nc1cc(=O)[nH]c(=O)[nH]1)c1ccccc1`: the TGI with A549 NSCLC, with CCRF-CEM leukemia, with KM12 colon, with MOLT-4 leukemia, with NCI-H23 lung and in the experiment on OVCAR-8 ovarian was over 100 µM throughout. Also, the TGI with SF-268 CNS, in the experiment with SK-MEL-5 melanoma, in the experiment on SK-OV-3 ovarian, in the experiment on SNB-19 CNS, in the experiment on SW-620 colon and in the experiment with T-47D breast was over 100 µM each time. In addition, the TGI with U251 CNS is over 100 µM.
In the case of `COc1ccc2c(c1)CN1C(=N2)CSC1c1cc([N+](=O)[O-])ccc1Cl` (stereo not drawn), the TGI with A549 NSCLC, in the experiment on KM12 colon, in the experiment with MOLT-4 leukemia, in the experiment with NCI-H23 lung, with NCI-H522 lung and in the experiment on OVCAR-8 ovarian was over 100 µM throughout. The TGI in the experiment on SF-268 CNS, in the experiment with SK-MEL-5 melanoma, in the experiment on SK-OV-3 ovarian, with SNB-19 CNS, in the experiment on SW-620 colon and with T-47D breast was over 100 µM in each case. This compound also came in with a TGI in the experiment on U251 CNS of over 100 µM.
Turning to `CC1=CC(C2/C(=N/O)C=C(C)CC2(C)C)C(O)C(C)(C)C1` (stereo not drawn), the TGI was determined as 29.6 µM with A549 NSCLC; 60.4 µM in the experiment with CCRF-CEM leukemia; 31.6 µM in the experiment on KM12 colon; 31.3 µM in the experiment on MOLT-4 leukemia; 32.8 µM in the experiment on NCI-H23 lung; 33.8 µM in the experiment on OVCAR-8 ovarian. Also, the TGI in the experiment on SF-268 CNS was determined as 37.1 µM; with SK-MEL-5 melanoma, 29.5 µM; with SK-OV-3 ovarian, 38.1 µM; in the experiment with SNB-19 CNS, 29.5 µM; in the experiment with SW-620 colon, 41.8 µM; with T-47D breast, 28.1 µM. This compound returned a TGI in the experiment on U251 CNS of 29.6 µM.
Regarding `O=C(O)c1ccc(NNc2cc(=O)[nH]c(=O)[nH]2)cc1`, the TGI with A549 NSCLC, in the experiment on CCRF-CEM leukemia, in the experiment on KM12 colon, with MOLT-4 leukemia, in the experiment on NCI-H23 lung and in the experiment on OVCAR-8 ovarian was over 100 µM each time. Besides, the TGI in the experiment with SF-268 CNS, in the experiment with SK-MEL-5 melanoma, in the experiment on SK-OV-3 ovarian, in the experiment on SNB-19 CNS, in the experiment on SW-620 colon and with T-47D breast was over 100 µM throughout. Also, in the experiment on U251 CNS, the TGI was over 100 µM.
With `CN(C)C1=Nc2ccccc2C(=S)N2CSCC12` (stereo not drawn), the TGI with A549 NSCLC is over 100 µM; in the experiment with CCRF-CEM leukemia it was 45.1 µM; with KM12 colon, over 100 µM; with MOLT-4 leukemia it was 54.1 µM; in the experiment with NCI-H522 lung, 29 µM; in the experiment with OVCAR-8 ovarian it was over 100 µM. Further, the TGI in the experiment with SF-268 CNS, with SK-MEL-5 melanoma, in the experiment with SK-OV-3 ovarian, with SNB-19 CNS, in the experiment on SW-620 colon and in the experiment with T-47D breast was over 100 µM throughout. The TGI in the experiment on U251 CNS was over 100 µM.
Turning to `CCC1c2[nH]c3ccccc3c2C[C@H]2C(=O)NC(COC(C)(C)C)C(=O)N12` (stereo partly drawn), the TGI in the experiment on A549 NSCLC was over 100 µM; with KM12 colon, over 100 µM; in the experiment with MOLT-4 leukemia it was 98.5 µM; with NCI-H23 lung, over 100 µM; in the experiment with NCI-H522 lung, over 100 µM; in the experiment with OVCAR-8 ovarian, over 100 µM. In addition, the TGI in the experiment on SF-268 CNS is over 100 µM; with SK-MEL-5 melanoma, 93.3 µM; in the experiment on SK-OV-3 ovarian, over 100 µM; in the experiment with SNB-19 CNS, over 100 µM; in the experiment on SW-620 colon it was over 100 µM; in the experiment on T-47D breast it was over 100 µM. The same compound showed a TGI in the experiment on U251 CNS of over 100 µM.
For `CC(=O)Oc1ccccc1-c1cc2ccccc2oc1=O`, the TGI in the experiment on A549 NSCLC, in the experiment on CCRF-CEM leukemia, in the experiment with KM12 colon, in the experiment with MOLT-4 leukemia, in the experiment with NCI-H23 lung and with NCI-H522 lung was over 100 µM each time. Moreover, the TGI in the experiment on OVCAR-8 ovarian, in the experiment on SF-268 CNS, in the experiment on SNB-19 CNS, in the experiment with SW-620 colon and with T-47D breast was over 100 µM in each case.
With `CCN(CC)CCn1nc(N)c2nc3cc(Cl)ccc3nc21`, the TGI in the experiment on A549 NSCLC, with KM12 colon, with MOLT-4 leukemia, in the experiment with NCI-H23 lung, in the experiment on NCI-H522 lung and in the experiment with OVCAR-8 ovarian was over 100 µM each time. Further, the TGI in the experiment with SF-268 CNS is over 100 µM; in the experiment with SK-MEL-5 melanoma, 74.1 µM; in the experiment with SK-OV-3 ovarian, over 100 µM; in the experiment with SNB-19 CNS, over 100 µM; in the experiment on SW-620 colon, over 100 µM; with T-47D breast, over 100 µM. The compound further yielded a TGI in the experiment on U251 CNS of over 100 µM.
With `CO[C@H]1[C@@H](O)[C@@H](C)O[C@@H](O[C@H]2CC[C@@]3(C)[C@H](CC[C@@H]4[C@@H]3CC[C@]3(C)[C@@H](C5=CC(=O)OC5)[C@@H](OC(C)=O)C[C@]43O)C2)[C@@H]1O`, the TGI with A549 NSCLC was determined as 0.0241 µM; in the experiment with KM12 colon it was 0.592 µM; in the experiment with NCI-H23 lung, 0.139 µM; in the experiment on NCI-H522 lung, 0.0368 µM; with OVCAR-8 ovarian, 0.152 µM; with SF-268 CNS it was 0.0855 µM. For the same compound, the TGI in the experiment on SK-MEL-5 melanoma was 0.201 µM; in the experiment with SK-OV-3 ovarian it was 0.188 µM; in the experiment on SNB-19 CNS, 0.507 µM; in the experiment on SW-620 colon, over 50 µM; in the experiment on T-47D breast, 0.435 µM; with U251 CNS, 0.186 µM.
